Data set [1] has as its system bone marrow macrophages (BMMs). Kind of data set: Cell viability, MTT assay, BMM cells. To be noted: dark or irradiated, 24 h, tested 1 nM–100 μM. (In general: Tetrazolium assays rely on reduction of a dye to a coloured formazan, in cell work by metabolically active cells.)
The subject of data set [2] is PC3 prostate carcinoma cells. The experiment in a line: Cell viability, MTT assay, PC3 cells. To be noted: PC-3 cells, dark or irradiated, 24 h, tested 1 nM–100 μM.
Data set [3] has as its target T1, cathepsin K (Mus musculus, UniProt P55097).
T1 sequence (P55097 115-329): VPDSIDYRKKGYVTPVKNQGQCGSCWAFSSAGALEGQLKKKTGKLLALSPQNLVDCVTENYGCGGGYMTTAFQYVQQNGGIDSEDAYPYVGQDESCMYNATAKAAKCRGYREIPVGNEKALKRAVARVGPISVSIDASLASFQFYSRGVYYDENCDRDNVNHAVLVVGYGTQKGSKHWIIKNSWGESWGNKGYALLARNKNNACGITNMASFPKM
The experiment in a line: Live cell cathepsin K activity staining in osteoclasts.

The subject of data set [4] is purified cathepsin K. To be noted: read-out: IC50 against purified cathepsin K; literature value; cited from earlier work.
The subject of data set [5] is cathepsin K. To be noted: cited from earlier work.
Data set [6] has as its target T2, Recombinant cathepsin K (human) (Homo sapiens, UniProt P43235).
T2 sequence (P43235 115-329): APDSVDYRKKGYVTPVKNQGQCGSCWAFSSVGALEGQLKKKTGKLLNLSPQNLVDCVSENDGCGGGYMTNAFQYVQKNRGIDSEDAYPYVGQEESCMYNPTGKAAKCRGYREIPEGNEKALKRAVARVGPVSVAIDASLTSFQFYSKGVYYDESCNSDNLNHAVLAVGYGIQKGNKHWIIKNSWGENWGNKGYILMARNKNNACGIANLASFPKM
To be noted: read-out: IC50 against purified human cathepsin K; parent inhibitors; identical within error under light vs. dark; cathepsin K 2 nM, Z-Gly-Pro-Arg-AMC 100 μM.

The conditions of data set [7]: longer than 2; cited from earlier work.
For data set [8] the following is noted: cited from earlier work.

This is an account of results in paper PMC4095795 (ChemMedChem, 2014).

Take `CC#N.CC#N.F[P-](F)(F)(F)(F)F.F[P-](F)(F)(F)(F)F.[Ru+2].c1ccc(-c2ccccn2)nc1.c1ccc(-c2ccccn2)nc1` [reference compound]: the “concentrations with no effects on viability / well tolerated (MTT)” value in data set [1] and in data set [2] was “up to 10 μM” in each case. In addition, the “effect on Z-LR-4MβNA hydrolysis at 1000 nM” value in data set [3] (1000 nM, with CA074Me 1 μM) is “slight reduction”. For the same compound, in data set [3] (Z-LR-4MβNA, with CA074Me 1 μM), the “difference in inhibition between light and dark” value is “no difference in inhibition between light and dark experiments”.
Take `CC(C)CC(NC(=O)OCc1ccccc1)C(=O)NCC#N` (stereo not drawn) [Compound 2, Cbz-Leu-NHCH2CN, reference compound]: the figures for the IC50 in data set [4] and in data set [6] were 35 nM and 36 nM, respectively. For the same compound, in data set [5], the “inhibition of cathepsin K activity in live cell assays” value is reported as “inhibit cathepsin K activity in live cell assays”. Besides, in data set [3] (4 under light conditions), the “maximum inhibition of Z-LR-4MβNA hydrolysis” value was 50%. The “reduction of hydrolysis of Z-LR-4MβNA” value in data set [3] (10–1000 nM, dose dependent, with CA074Me 1 μM) was “up to 50%”.
Turning to `CC(C)CC(NC(=O)OCc1ccccc1)C(=O)NC(C#N)COCc1ccccc1` (stereo not drawn) [Compound 3, Cbz-Leu-Ser(OBn)-CN], the values for the IC50 in data set [4] and in data set [6] were 9 nM and 28 nM, respectively. Further, the “half-life in vivo relative to 2” value in data set [7] is “roughly 10 times”. Further, the “plasma stability relative to 2” value in data set [8] is reported as “longer plasma stability”.
